{"source": "paper PMC4908816", "about": "(Molecular microbiology, 2016)", "key": {"[1]": {"tested_on": "R388 transfer (bacterial conjugation)", "experiment": "High-throughput conjugation assay", "type": "cell-based", "settings": "500 μM compound (Fig. 3A), E. coli DH5α donor, BL21(DE3) recipient"}, "[2]": {"tested_on": "R388-mediated conjugation", "settings": "cited from earlier work; for inhibition of bacterial conjugation: ref Getino et al., 2015; for inhibition of bacterial conjugation in vivo assays: ref Fernández-Lopez et al., 2005"}, "TrwD [3]": {"target": "T1, TrwD (Escherichia coli, UniProt O50338)", "T1 sequence (O50338 1-358)": "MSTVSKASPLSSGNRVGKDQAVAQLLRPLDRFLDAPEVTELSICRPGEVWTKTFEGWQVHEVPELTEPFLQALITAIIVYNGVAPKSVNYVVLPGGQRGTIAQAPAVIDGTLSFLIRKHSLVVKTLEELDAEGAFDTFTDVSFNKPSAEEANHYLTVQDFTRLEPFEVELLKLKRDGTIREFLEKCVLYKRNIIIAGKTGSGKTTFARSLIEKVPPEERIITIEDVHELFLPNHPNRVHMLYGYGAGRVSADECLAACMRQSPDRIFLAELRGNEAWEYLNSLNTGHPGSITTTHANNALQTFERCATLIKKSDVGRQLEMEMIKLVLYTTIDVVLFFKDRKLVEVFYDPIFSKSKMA", "experiment": "ATP hydrolysis assay", "type": "biochemical, conjugative plasmid R388", "settings": "for K0.5 ATP of TrwD in the presence of fatty acid / mechanism of inhibition of TrwD ATP hydrolysis: 21 μM linoleic acid or 30 μM 2-HDA; for K0.5 ATP of TrwD in the presence of fatty acid: 44 μM in the absence of fatty acids; for mechanism of inhibition of TrwD ATP hydrolysis: increasing ATP; for effect on Vmax of TrwD ATP hydrolysis: compound at its Ki[app] (21 μM linoleic acid, 30 μM 2-HDA); for inhibition (reduction) of TrwD ATPase activity: 50 μM fatty acid"}, "TrwD [4]": {"target": "T1, TrwD", "experiment": "Partial proteolysis of TrwD by papain", "parameters": "species or system conjugative plasmid R388", "settings": "1:10 to 1:100 TrwD:2-HDA or 1:100 TrwD:palmitic acid molar ratio; 90 min, 25 °C"}, "TrwB": {"target": "TrwB (Escherichia coli, UniProt Q04230)", "experiment": "ATP hydrolysis assay", "type": "biochemical, conjugative plasmid R388", "settings": "50 μM linoleic acid; ATPase 2 μM"}, "TrwC": {"tested_on": "TrwC", "experiment": "ATP hydrolysis assay", "type": "biochemical, conjugative plasmid R388", "settings": "50 μM linoleic acid; ATPase 2 μM"}, "TrwK": {"target": "TrwK (Escherichia coli, UniProt O50330)", "experiment": "ATP hydrolysis assay", "type": "biochemical, conjugative plasmid R388", "settings": "50 μM linoleic acid; ATPase 2 μM"}}, "note": "Several values for one entry are separate records, joined by “and”; a condition that tells them apart may be missing. Equal entries are not always repeated.", "data": [{"smiles": "CCCCCCCCCC#CCCC#CC(=O)O", "note": "[2,6-HDA, 2,6 hexadecadiynoic acid]", "values": [{"measurement": "inhibition of bacterial conjugation", "setting": "[1]", "value": "efficient conjugation inhibitors"}, {"measurement": "inhibition of bacterial conjugation", "setting": "[2]", "value": "more effective in inhibiting bacterial conjugation"}, {"measurement": "Ki", "setting": "TrwD [3]", "value": "43.8 ± 2.8", "unit": "µM"}]}, {"smiles": "CCCCCCCCCCCCCC#CC(=O)O", "note": "[2-HDA, 2-hexadecynoic acid]", "values": [{"measurement": "susceptibility of TrwD to papain digestion", "setting": "TrwD [4]", "value": "high susceptibility to papain degradation"}, {"measurement": "inhibition of bacterial conjugation", "setting": "[2]", "value": "more effective in inhibiting bacterial conjugation"}, {"measurement": "Ki", "setting": "TrwD [3]", "value": "29.7 ± 2.1", "unit": "µM"}, {"measurement": "K0.5 ATP of TrwD in the presence of fatty acid", "setting": "TrwD [3]; TrwD 2 μM", "value": 66, "unit": "µM"}, {"measurement": "mechanism of inhibition of TrwD ATP hydrolysis", "setting": "TrwD [3]", "value": "non-competitive"}, {"measurement": "Kd ADP of TrwD in the presence of fatty acid", "setting": "TrwD [3]; 30 μM 2-HDA, TrwD 2 μM, control without 2-HDA 45.1 ± 4.1 μM", "value": "51 µM and 51.7 ± 9.8 µM"}, {"measurement": "effect on Vmax of TrwD ATP hydrolysis", "setting": "TrwD [3]", "value": "reduced by half"}]}, {"smiles": "CCCCCCCCCCCCCCCC#CC(=O)O", "note": "[2-ODA, 2-octadecynoic acid]", "values": [{"measurement": "inhibition of bacterial conjugation", "setting": "[1]", "value": "efficient conjugation inhibitors"}, {"measurement": "inhibition of bacterial conjugation", "setting": "[2]", "value": "more effective in inhibiting bacterial conjugation"}, {"measurement": "Ki", "setting": "TrwD [3]", "value": "29.8 ± 4.1", "unit": "µM"}]}, {"smiles": "CCCCCCCCCCCC(=O)O", "note": "[Lauric acid]", "values": [{"measurement": "inhibition of bacterial conjugation in vivo assays", "setting": "[2]", "value": "unable to inhibit significantly"}, {"measurement": "inhibition (reduction) of TrwD ATPase activity", "setting": "TrwD [3]; TrwD 2 μM", "value": "no inhibition was observed"}]}, {"smiles": "CCCCCCCCCCCCCCCC(=O)O", "note": "[Palmitic acid]", "values": [{"measurement": "susceptibility of TrwD to papain digestion", "setting": "TrwD [4]", "value": "did not affect the susceptibility"}, {"measurement": "inhibition of bacterial conjugation in vivo assays", "setting": "[2]", "value": "unable to inhibit significantly"}, {"measurement": "inhibition (reduction) of TrwD ATPase activity", "setting": "TrwD [3]; TrwD 2 μM", "value": "no inhibition was observed"}]}, {"smiles": "CCCCC/C=C\\C/C=C\\CCCCCCCC(=O)O", "note": "[linoleic acid]", "values": [{"measurement": "effect on TrwB ATPase activity", "setting": "TrwB", "value": "no significant effect"}, {"measurement": "effect on TrwC ATPase activity", "setting": "TrwC", "value": "no significant effect"}, {"measurement": "inhibition of bacterial conjugation in vivo assays", "setting": "[2]", "value": "effective inhibitors of bacterial conjugation"}, {"measurement": "effect on TrwK ATPase activity", "setting": "TrwK", "value": "no significant effect"}, {"measurement": "Ki", "setting": "TrwD [3]", "value": "20.9 ± 1.6", "unit": "µM"}, {"measurement": "K0.5 ATP of TrwD in the presence of fatty acid", "setting": "TrwD [3]; TrwD 2 μM", "value": 44, "unit": "µM"}, {"measurement": "mechanism of inhibition of TrwD ATP hydrolysis", "setting": "TrwD [3]", "value": "non-competitive"}, {"measurement": "effect on Vmax of TrwD ATP hydrolysis", "setting": "TrwD [3]", "value": "reduced by half"}]}, {"smiles": "CCCCCCCC/C=C\\CCCCCCCC(=O)O", "note": "[oleic acid]", "values": [{"measurement": "inhibition of bacterial conjugation in vivo assays", "setting": "[2]", "value": "effective inhibitors of bacterial conjugation"}, {"measurement": "inhibition (reduction) of TrwD ATPase activity", "setting": "TrwD [3]; TrwD 2 μM", "value": "more than 90%"}]}]}
